Test results as given in patent US8114885B2, “Chemical compounds” (GlaxoSmithKline LLC, priority 2000, dated 2012).

The compounds below were run on HUVEC (assay: Human Umbilical Vein Endothelial Cell (HUVEC) proliferation assay (BrdU incorporation)). Conditions: VEGF-stimulated HUVEC, 72 hrs, read-out: Inhibition of HUVEC proliferation IC50.
Assay type: cell-based
Experimental: Human Umbilical Vein Endothelial Cell (HUVEC) Proliferation Assay (BrdU Incorporation) Materials
HUVEC cells and EGM-MV (Endothelial cell growth medium—microvascular) were purchased from Clonetics (San Diego, Calif.). VEGF and bFGF were purchased from R&D Systems (Minneapolis, Minn.). Anti-BrdU antibody was obtained from Chemicon International (Temecula, Calif.).
HUVECs were routinely maintained in EGM-MV medium and were used within passage 7. HUVECs were plated at a density of 2500 cells/well in M199 medium containing 5% FBS (Hyclone) in type I collagen coated plate (Becton Dickinson). The plate was incubated at 37° C. overnight. The medium was removed by aspiration, and test compounds were added to each well in a volume of 0.1 ml/well in serum-free M199 medium. Compound concentrations ranged from 1.5 nM to 30 micromolar. The plate was incubated for 30 min at 37° C. Another 0.1 ml of serum-free M199 medium containing BSA and VEGF (or bFGF) was added to give a final concentration of 0.1% BSA and 10 ng/ml VEGF (0.3 ng/ml bFGF). The plate was incubated at 37° C. for 72 hrs. BrdU was added to each well after the first 48 hrs to give a concentration of 10 micromolar. The calorimetric ELISA assay was performed according to manufacturer's (Roche Molecular Sciences) instructions, with detection by absorbance reading at 450 nm. Results were plotted as concentration of test compound vs. absorbance to give an IC50 value for inhibition of BrdU incorporation.
For `Cc1c2ccc(N(C)c3ccnc(Nc4ccc(CS(C)(=O)=O)cc4)n3)cc2nn1C` [Example 72, N^4-(2,3-dimethyl-2H-indazol-6-yl)-N^4-methyl-N^2-{4-[(methylsulfonyl)methyl]phenyl}pyrimidine-2,4-diamine], the IC50 was 0.001 to 0.2 µM. `CN(c1ccc2cn[nH]c2c1)c1ccnc(Nc2cccc(CS(C)(=O)=O)c2)n1` [Example 37, N^4-(1H-indazol-6-yl)-N^4-methyl-N^2-{3-[(methylsulfonyl)methyl]phenyl}-2,4-pyrimidinediamine] was tested, and the IC50 was 0.201 to 0.5 µM. In the case of `CCC(=O)c1ccc(OC)c(Nc2nccc(Nc3ccc4c(C)n[nH]c4c3)n2)c1` [Example 41, 1-[4-methoxy-3-({4-[(3-methyl-1H-indazol-6-yl)amino]-2-pyrimidinyl}amino)phenyl]-1-propanone], the IC50 is reported as 0.501 to 1 µM. For `CN(c1ccc2c(CO)n(C)nc2c1)c1ccnc(Nc2cccc(S(N)(=O)=O)c2)n1` [Example 73, 3-({4-[[3-(hydroxymethyl)-2-methyl-2H-indazol-6-yl](methyl)amino]pyrimidin-2-yl}amino)benzenesulfonamide], the IC50 was 0.001 to 0.2 µM. `Cc1ccc(Nc2nccc(N(C)c3ccc4c(C)n[nH]c4c3)n2)cc1S(N)(=O)=O` [Example 64, 2-methyl-5-({4-[methyl(3-methyl-1H-indazol-6-yl)amino]-2-pyrimidinyl}amino)benzenesulfonamide] showed an IC50 of 0.001 to 0.2 µM. Compound `COc1ccc(S(=O)(=O)Cc2cc(C)on2)cc1Nc1nccc(Nc2ccc3c(C)n[nH]c3c2)n1` [Example 33, N^2-(2-methoxy-5-{[(5-methyl-3-isoxazolyl)methyl]sulfonyl}phenyl)-N^4-(3-methyl-1H-indazol-6-yl)-2,4-pyrimidinediamine] has an IC50 greater than 1 µM. `CNS(=O)(=O)c1ccc(OC)c(Nc2ncc(F)c(N(C)c3ccc4c(C)n[nH]c4c3)n2)c1` [Example 2, 3-({5-fluoro-4-[methyl(3-methyl-1H-indazol-6-yl)amino]-2-pyrimidinyl}amino)-4-methoxy-N-methylbenzenesulfonamide] showed an IC50 of 0.001 to 0.2 µM. `CCS(=O)(=O)c1ccc(OC)c(Nc2ncc(F)c(N(C)c3ccc4c(C)n[nH]c4c3)n2)c1` [Example 1, N^2-[5-(ethylsulfonyl)-2-methoxyphenyl]-5-fluoro-N^4-methyl-N^4-(3-methyl-1H-indazol-6-yl)-2,4-pyrimidinediamine] showed an IC50 of 0.201 to 0.5 µM. With `Cc1nn(C)c2cc(N(C)c3ccnc(Nc4cccc(CS(C)(=O)=O)c4)n3)ccc12` [Example 38, N^4-(1,3-dimethyl-1H-indazol-6-yl)-N^4-methyl-N^2-{3-[(methylsulfonyl)methyl]phenyl}-2,4-pyrimidinediamine] the IC50 was 0.201 to 0.5 µM. In the case of `Cc1n[nH]c2cc(N(C)c3nc(Nc4cccc(CS(C)(=O)=O)c4)ncc3F)ccc12` [Example 3, 5-fluoro-N^4-methyl-N^4-(3-methyl-1H-indazol-6-yl)-N^2-{3-[(methylsulfonyl)methyl]phenyl}-2,4-pyrimidinediamine], the IC50 is reported as 0.001 to 0.2 µM. Work on `CCc1n[nH]c2cc(N(C)c3nc(Nc4cccc(CS(C)(=O)=O)c4)ncc3F)ccc12` [Example 8, N^4-(3-ethyl-1H-indazol-6-yl)-5-fluoro-N^4-methyl-N^2-{3-[(methylsulfonyl)methyl]phenyl}-2,4-pyrimidinediamine] yielded an IC50 of 0.201 to 0.5 µM. Work on `COc1ccc(S(=O)(=O)C(C)C)cc1Nc1ncc(F)c(N(C)c2ccc3c(C)n[nH]c3c2)n1` [Example 5, 5-fluoro-N^2-[5-(isopropylsulfonyl)-2-methoxyphenyl]-N^4-methyl-N^4-(3-methyl-1H-indazol-6-yl)-2,4-pyrimidinediamine] yielded an IC50 of 0.201 to 0.5 µM. `COc1ccc(S(=O)(=O)NC(C)C)cc1Nc1ncc(F)c(N(C)c2ccc3c(C)n[nH]c3c2)n1` [Example 4, 3-({5-fluoro-4-[methyl(3-methyl-1H-indazol-6-yl)amino]-2-pyrimidinyl}amino)-N-isopropyl-4-methoxybenzenesulfonamide] gave an IC50 of 0.201 to 0.5 µM. With `CCS(=O)(=O)c1ccc(OC)c(Nc2nccc(Nc3ccc4c(C)n[nH]c4c3)n2)c1` [Example 55, N^2-[5-(ethylsulfonyl)-2-methoxyphenyl]-N^4-(3-methyl-1H-indazol-6-yl)-2,4-pyrimidinediamine] the IC50 was 0.001 to 0.2 µM.
